# Data: patent publication US20170268001A1, “RNAS WITH TUMOR RADIO/CHEMO-SENSITIZING AND IMMUNOMODULATORY PROPERTIES AND METHODS OF THEIR PREPARATION AND APPLICATION” (THE UNIVERSITY OF CHICAGO, priority 2016, published 2017)
# T1: RIG-I (Homo sapiens, UniProt O95786)
# T1 construct: HEK293 cells overexpressing either the full length RIG-I; host or cells: HEK293; HCT116 also for the qRT-PCR validation
# T1 sequence (O95786 1-925): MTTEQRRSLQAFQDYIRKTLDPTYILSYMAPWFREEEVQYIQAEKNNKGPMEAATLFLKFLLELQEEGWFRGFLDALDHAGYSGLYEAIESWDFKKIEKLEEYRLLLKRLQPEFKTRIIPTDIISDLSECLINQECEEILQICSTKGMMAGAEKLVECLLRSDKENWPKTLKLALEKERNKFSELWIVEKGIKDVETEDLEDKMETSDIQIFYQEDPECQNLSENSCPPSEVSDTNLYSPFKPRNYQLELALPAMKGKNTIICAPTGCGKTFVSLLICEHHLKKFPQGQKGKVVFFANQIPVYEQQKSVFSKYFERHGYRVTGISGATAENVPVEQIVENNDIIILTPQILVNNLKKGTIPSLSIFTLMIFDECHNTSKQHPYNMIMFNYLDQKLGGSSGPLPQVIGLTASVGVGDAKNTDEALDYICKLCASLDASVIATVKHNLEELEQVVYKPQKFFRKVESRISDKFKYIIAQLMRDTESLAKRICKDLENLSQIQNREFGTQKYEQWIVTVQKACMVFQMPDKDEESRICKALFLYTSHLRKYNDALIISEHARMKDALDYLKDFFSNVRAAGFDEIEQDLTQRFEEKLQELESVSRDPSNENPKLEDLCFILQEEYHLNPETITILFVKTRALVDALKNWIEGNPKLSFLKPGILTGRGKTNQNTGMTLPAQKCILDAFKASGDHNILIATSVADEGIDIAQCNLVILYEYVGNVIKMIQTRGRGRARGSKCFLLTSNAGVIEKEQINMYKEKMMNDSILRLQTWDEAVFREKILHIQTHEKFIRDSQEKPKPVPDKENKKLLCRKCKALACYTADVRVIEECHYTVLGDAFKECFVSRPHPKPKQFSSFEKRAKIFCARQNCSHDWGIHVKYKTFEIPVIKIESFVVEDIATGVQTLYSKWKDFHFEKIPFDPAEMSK
# B1: M5: rbRNA, RIG-I agonist, 81 nucleotides, SEQ ID NO:26 (nucleic acid)
# chain: GACGAAGACCACAAAACCAGATAAAAAATTATTTTTTATCTGGTTTTGTGGTCTTCGTCTATAGTGAGTCGTATTAATTTC
# modifications: listed as DNA, chemistry not given here
# Biological target: T1, RIG-I
# Assay: UV cross-linking with quantitative real-time PCR (CLIP-PCR) of RIG-I complexes
# Format: binding
# Method: Graphic representation indicating the distribution of non-coding and repetitive RNA molecules bound to RIG-I following exposure to IR as compared to total irradiated cellular RNA. Transcripts were mapped to reference genomes using RepeatMasker. See Methods for further details. […] Cells were UV crosslinked at 150 mJ/cm^2 48 hours post-IR treatment prior to cell lysis. […] FIG. 29H show IFN-b levels in culture supernatant from ICR RIG-I^+/+ and primary MEFs 24 hours post-stimulation with the same set of synthetic U1 oligonucleotides used in (FIG. 29G) The amount of U1 synthetic oligonucleotides used in all stimulation experiments was 1 μg. P values were determined using unpaired Student's t-test. Error bars are SEM. ***P<0.005.
# Technically, identification of RNAs was performed as follows: HEK293 cells were transiently transfected with 3×FLAG-tagged full-size RIG-I in pEF-BOS vector (Addgene; Cambridge, Mass.). Twenty-four hours post-transfection, cells were either mock-irradiated or exposed to IR (6 Gy). Forty-eight hours post-IR, cells were lysed with a modified lysis buffer (50 mM Tris-Cl pH 7.5, 0.15 M NaCl, 0.1% NP-40, 1.0% Triton X-100, 1 mM EDTA pH8.0, 1 mM EGTA pH8.0, 10% Glycerol, 2.5 mM MgCl2, 1 mM DTT, 0.1 mM ATP, and 1× Halt Protease Inhibitor) and incubated on ice for 1 hour. Cell lysates were separated from cell debris by centrifugation at 12,000 rpm at 4° C. Protein concentration was measured by BCA kit. Anti-FLAG monoclonal antibody was added to the cell lysate at a 1:500 dilution, and incubated overnight at 4° C. Protein G sepharose beads were added to the lysates and incubated for at least 2 hours at 4° C. Beads containing the antibody-RIG-I complexes were washed five times in wash buffer (50 mM Tris-Cl pH 7.5, 0.15 M NaCl, 1 mM MgCl2, 0.05% NP-40, 1 mM DTT) and proteins were eluted from the beads using a soft elution buffer (0.5% SDS, 0.1% Tween-20, 50 mM Tris pH 8.0) for 10 minutes at room temperature with vortexing every 2-3 minutes. Proteinase K was added to the eluates and incubated at 50° C. for 45 minutes. Trizol reagent was then added to the solution, and RNA bound to RIG-I was purified following manufacturer's protocol. RNA quality was analyzed using an Agilent Bioanalyzer 2100 with Pico Series II cartridges. RNA yield was measured using the Qubit RNA Broad Range kit. For qRT-PCR validation experiments of RIG-I pulled down RNA, UV cross-linking (2 doses at 150 mJ/cm^2) was performed on HEK293 and HCT116 overexpressing RIG-I prior to cell lysis. The same protocol for pulldown and RNA purification experiments was performed as described above.
Molecule,enrichment in RIG-I: RNA complexes in irradiated samples (HCT116 cells overexpressing RIG-I),"enrichment in purified RIG-I complexes, irradiated vs non-irradiated (HEK293 expressing WT RIG-I, IR 6 Gy)",binding to RIG-I (RIG-I: RNA complexes isolated from HCT116 cells overexpressing RIG-I)
"U2: snRNA, SEQ ID NO:21",significant enrichment,6 fold,
B1,,,binds
